In patent US7091220B2, “Substituted indole Mannich bases” (Gruenenthal GmbH, priority 1999, dated 2006):

The molecules below were run on α2-subtype of the human α-adrenergic receptor (assay: SPA test, affinity for the α2-subtype of the human α-adrenergic receptor). Conditions: not given.
Format: binding
Protocol: Wide-ranging testing of the indole Mannich bases according to the invention for their activity was carried out by the conventional high throughput screening methods, such as are described in John P. Devlin, High Throughput Screening, 1997, Marcel Dekker Inc. They are introduced here as a reference and are therefore part of the disclosure.
The action of the indole Mannich bases according to the invention is determined in particular by the affinity for the N-methyl-D-aspartate (NMDA) receptor family, for (α-adrenergic receptors and opioid receptors.
The compounds of the general formula 1 according to the invention investigated are suitable as ligands for the α2-subtype of the human α-adrenergic receptor, which is of importance for pain sensation.
The affinity of the compounds according to the invention for this α2-subtype of the α-adrenergic receptor has been determined with the aid of the SPA test such as is described in John P. Devlin, High Throughput Screening, Marcel Dekker Inc. 1997, pages 307 to 316. This literature is introduced herewith as a reference and is therefore part of the disclosure. The affinities of the compounds according to the invention were in each case determined at a concentration of 10 μM.

| % Inhibition of α2 (humans), 10 μM [%] | Molecule |
| --- | --- |
| 40 | Cc1[nH]c2ccc([N+](=O)[O-])cc2c1C(c1ccccc1)N(C)C (stereo not shown) [Example 15, Dimethyl-[(2-methyl-5-nitro-1H-indol-3-yl)-phenylmethyl]-amine] |
| 43 | CN(C)C(c1cc(Br)ccc1F)c1c[nH]c2cccc([N+](=O)[O-])c12 (stereo not shown) [Example 51, [(5-Bromo-2-fluoro-phenyl)-(4-nitro-1H-indol-3-yl)-methyl]-dimethyl-amine] |
| 64 | CN(C)C(c1ccccc1Br)c1c[nH]c2cccc([N+](=O)[O-])c12 (stereo not shown) [Example 57, [(2-Bromo-phenyl)-(4-nitro-1H-indol-3-yl)-methyl]-dimethyl-amine] |
| 36 | CN(C)C(c1c(F)cccc1Cl)c1c(-c2ccc(Cl)cc2)[nH]c2ccccc12 (stereo not shown) [Example 67, {(2-Chloro-6-fluoro-phenyl)-[2-(4-chloro-phenyl)-1H-indol-3-yl]-methyl}-dimethyl-amine] |
| 82 | CN(C)C(c1ccccc1Br)c1cn(C)c2ccccc12 (stereo not shown) [Example 58, [(2-Bromo-phenyl)-(1-methyl-1H-indol-3-yl)-methyl]-dimethyl-amine] |
| 37 | CN(C)C(c1cc(Br)ccc1F)c1cn(C)c2ccccc12 (stereo not shown) [Example 52, [(5-Bromo-2-fluoro-phenyl)-(1-methyl-1H-indol-3-yl)-methyl]-dimethyl-amine] |
| 51 | 5-Benzyloxy-3-(phenyl-pyrrolidin-yl-methyl)-1H-indole [Example 50] |
| 51 | CCn1c(-c2ccccc2)c(C(c2ccc(C(C)(C)C)cc2)N(C)C)c2ccccc21 (stereo not shown) [Example 62, [(4-tert-Butyl-phenyl)-(1-ethyl-2-phenyl-1H-indol-3-yl)-methyl]-dimethyl-amine] |
| 48 | CN(C)C(c1ccc(F)cc1Cl)c1c[nH]c2cccc([N+](=O)[O-])c12 (stereo not shown) [Example 64, [(2-Chloro-4-fluoro-phenyl)-(4-nitro-1H-indol-3-yl)-methyl]-dimethyl-amine] |
| 63 | Cc1[nH]c2ccccc2c1C(c1ccc(C(C)(C)C)cc1)N(C)C (stereo not shown) [Example 61, [(4-tert-Butyl-phenyl)-(2-methyl-1H-indol-3-yl)-methyl]-dimethyl-amine] |
| 42 | Cc1cccc2[nH]cc(C(c3ccc(F)cc3Cl)N(C)C)c12 (stereo not shown) [Example 65, [(2-Chloro-4-fluoro-phenyl)-(4-methyl-1H-indol-3-yl)-methyl]-dimethyl-amine] |
| 49 | CN(C)C(c1c(F)cccc1Cl)c1c[nH]c2cccc([N+](=O)[O-])c12 (stereo not shown) [Example 55, [(2-Chloro-6-fluoro-phenyl)-(4-nitro-1H-indol-3-yl)-methyl]-dimethyl-amine] |
| 55 | CCn1c(-c2ccccc2)c(C(c2c(F)cccc2Cl)N(C)C)c2ccccc21 (stereo not shown) [Example 54, [(2-Chloro-6-fluoro-phenyl)-(1-ethyl-2-phenyl-1H-indol-3-yl)-methyl]-dimethylamine] |
| 63 | CN(C)C(c1cccc(Cl)c1Cl)c1cn(C)c2ccccc12 (stereo not shown) [Example 70, [(2,3-Dichloro-phenyl)-(1-methyl-1H-indol-3-yl)-methyl]-dimethyl-amine] |
| 75 | CN(C)C(c1cccc(Cl)c1)c1cn(C)c2ccccc12 (stereo not shown) [Example 69, [(3-Chloro-phenyl)-(1-methyl-1H-indol-3-yl)-methyl]-dimethyl-amine] |
| 50 | CN(C)C(c1ccc(Cl)cc1Cl)c1cn(C)c2ccccc12 (stereo not shown) [Example 71, [(2,4-Dichloro-phenyl)-(1-methyl-1H-indol-3-yl)-methyl]-dimethyl-amine] |
| 37 | CCc1cccc2c(C(c3cccc(Br)c3)N(C)C)c[nH]c12 (stereo not shown) [Example 59, [(3-Bromo-phenyl)-(7-ethyl-1H-indol-3-yl)-methyl]-dimethyl-amine] |

Same assay, conditions: 10 µM

| % Inhibition of α2 (humans), 10 μM [%] | Molecule |
| --- | --- |
| 38 | CN(C)C(c1c(F)cccc1Cl)c1c(-c2ccccc2)[nH]c2ccccc12 (stereo not shown) [Example 53, [(2-Chloro-6-fluoro-phenyl)-(2-phenyl-1H-indol-3-yl)-methyl]-dimethylamine] |
| 88 | CN(C)C(c1c(F)cccc1Cl)c1cn(C)c2ccccc12 (stereo not shown) [Example 68, [(2-Chloro-6-fluoro-phenyl)-(1-methyl-1H-indol-3-yl)-methyl]-dimethyl-amine] |

Each molecule was assayed on phenylquinone-induced writhing in mice (assay: Analgesia test: phenylquinone-induced writhing in mice). Conditions: male NMRI mice; standard dose 10 mg/kg intravenous, 10 minutes before phenylquinone intraperitoneally; counted 5–20 minutes.
Format: in vivo
Protocol: The in-depth investigation of the compounds according to the invention for their analgesic activity was carried out in the phenylquinone-induced writhing in mice (modified by I. C. Hendershot, J. Forsaith, J. Pharmacol. Exp. Ther. 125, 237–240 (1959)). Male NMRI mice weighing 25–30 g were used for this. Groups of 10 animals per substance dose received 0.3 ml/mouse of a 0.02% aqueous solution of phenylquinone (phenylbenzoquinone, Sigma, Deisenhofen; preparation of the solution with the addition of 5% ethanol and storage in a water bath at 45° C.) administered intraperitoneally 10 minutes after intravenous administration of the test substances. The animals were placed individually in observation cages. The number of pain-induced stretching movements (so-called writhing reactions=straightening of the body with stretching of the hind extremities) were counted by means of a push-button counter for 5–20 minutes after the administration of phenylquinone. Animals which received only physiological saline solution were also run as a control.
The substances were tested in the standard dose of 10 mg/kg. The inhibition of the writhing reactions by a substance was calculated according to the following equation: […]
The in-depth investigation of the compounds according to the invention for their analgesic activity was carried out in the phenylquinone-induced writhing in mice as described above.

| Molecule | Inhibition of the writhing reaction in % [%] |
| --- | --- |
| Cn1cc(C(c2ccccc2)N2CCOCC2)c2ccccc21 (stereo not shown) [Example 23, 1-Methyl-3-(morpholin-4-yl-phenylmethyl)-1H-indole] | 75 |
| Cn1cc(C(c2ccccc2)N2CCCCC2)c2ccccc21 (stereo not shown) [Example 48, 1-Methyl-3-(phenylpiperidin-1-yl-methyl)-1H-indole] | 6 |
| CN(C)C(c1ccccc1)c1c[nH]c2ccccc12 (stereo not shown) [Example 46, [(1H-Indol-3-yl)-phenylmethyl]-dimethylamine] | 41 |
| c1ccc(C(c2c[nH]c3ccccc23)N2CCCCC2)cc1 (stereo not shown) [Example 49, 3-(Phenylpiperidin-1-yl-methyl)-1H-indole] | 82 |
| c1ccc(C(c2c[nH]c3ccccc23)N2CCCC2)cc1 (stereo not shown) [Example 47, 3-(Phenylpyrrolidin-1-yl-methyl)-1H-indole] | 57 |
| CN(C)C(c1ccccc1)c1cn(C)c2ccccc12 (stereo not shown) [Example 22, Dimethyl-[(1-methyl-1H-indol-3-yl)-phenylmethyl]-amine] | 39 |
